# Experimental data from US6461866B1, “In vitro photodynamic therapy using non laser light” (Photo Therapeutics Limited, priority 1992, dated 2002).
# Test system: Chinese hamster ovary (CHO) cells
# Assay: In vitro PDT: survival of CHO cells incubated with HpD after irradiation
# Type: cell-based
# Description: In vitro work carried out using Chinese hamster ovary (CHO) cells incubated with […] HpD for 24 hours. Irradiation was centered on 630±12 nm for three light sources, namely a high intensity continuous wave (CW) lamp (non-laser light source in accordance with the present invention using 300 W Xenon lamp), secondly a continuous wave 20 W argon ion pumped dye laser and pulsed 10 W copper vapour pumped dye laser, all with fibre delivery. Light doses ranged from 0 to 2.5 J/cm^2 with light fluences ranging from 20 to 200 mW/cm^2. A light only control was taken at 275 mW/cm^2 for energy doses of 0 to 100 J/cm^2. Following irradiation, cells were plated out, stained and counted for survival.
# FIGS. 2a, 2b, 2c show photosensitiser (HpD) absorption spectrum, cell kill efficacy spectrum and overlapping HpD/lamp spectra. PBS refers to phosphate buffered saline; S.F. means survival fraction.
# FIGS. 3a, 3b show cell survival curves obtained at 20 & 50 mW/cm^2 respectively with highest kill efficiency achieved by the argon ion laser, followed by the copper vapour laser. The lamp kill efficiency of the light source in accordance with the present invention, though similar to the lasers (approx 70%) would be increased by reducing its emission bandwidth from 30 nm.
substance,measurement,setting,value
haematoporhyrin derivative [HpD],lamp kill efficiency (cell survival curves),"CHO cells, 10 pg/ml HpD for 24 hours, 300 W Xenon lamp at 630±12 nm, 20 & 50 mW/cm^2, similar to the lasers",approx 70%
same,photo-inactivation of cancerous CHO cells in vitro,HpD with impinging visible light at 630±12 nm from the non-laser light source,proven photo-inactivation
